{"source": "paper PMC12298815", "about": "(Pharmaceutics, 2025)", "key": {"[1]": {"test": "In vivo pharmacokinetics in rats", "details": "rat; for AUC(0-inf): read-out: AUCinf of DT; for AUC(0-t): read-out: AUClast of DT; for half-life: read-out: T1/2 of DT (converted)", "procedure": "Pharmacokinetic parameters were calculated using a non-compartmental analysis model with WinNonlin® software version 5.3 (Pharsight Corp., Mountain View, CA, USA). All quantitative data are presented as mean ± standard deviation (SD) or standard error of the mean (SEM), as indicated. Statistical analyses were performed using one-way analysis of variance (ANOVA) to assess differences among groups, followed by Tukey’s post hoc test for multiple comparisons. A p-value less than 0.05 (p < 0.05) was considered statistically significant."}, "rat intestinal segments": {"tested_on": "rat intestinal segments", "test": "In situ single-pass rat intestinal perfusion (Peff)", "type": "in vivo, Sprague–Dawley rats", "details": "low-permeability reference, 100 µg/mL in perfusion buffer", "procedure": "The in situ single-pass intestinal effective permeability (Peff) of AT/DT dispersed in 0.5% DMSO and AT/DT-NE#E was evaluated in rats. Sprague–Dawley rats were selected due to their well-characterized gastrointestinal physiology, suitability for serial perfusion sampling, and widespread use in oral absorption and permeability studies. Prior to the procedure, the rats were fasted for 12–16 h with free access to water. Anesthesia was induced via intramuscular injection of a tiletamine·HCl–zolazepam mixture (1:1, w/w; 40 mg/kg). With the animals in a supine position, a midline longitudinal incision was made to expose the abdominal cavity. […]\nAfter a 30 min equilibration period to establish steady-state conditions, outlet perfusates were collected at 15 min intervals over a period of 120 min. […] It was perfused under identical conditions, and fluorescence was measured at excitation/emission wavelengths of 494/512 nm using a multimode microplate reader (PerkinElmer).\nBody temperature was maintained throughout the experiment using heated pads and a heat lamp. At the end of the study, the length and radius of each perfused intestinal segment were carefully measured without stretching. […]\nThe outlet concentrations of AT and DT were quantified via HPLC as described previously. […]"}}, "note": "Read-outs that look alike come from different tables or passages of the source.", "data": [{"smiles": "CC(=O)O[C@@]12CO[C@@H]1C[C@H](O)[C@@]1(C)C(=O)[C@H](O)C3=C(C)[C@@H](OC(=O)[C@H](O)[C@@H](NC(=O)OC(C)(C)C)c4ccccc4)C[C@@](O)([C@@H](OC(=O)c4ccccc4)[C@H]21)C3(C)C", "note": "[DT, Docetaxel]", "values": [{"measurement": "Cmax", "setting": "[1]; plasma, IV, DT 5 mg/kg", "value": "479 ± 45.3", "unit": "ng/mL"}, {"measurement": "AUC(0-inf)", "setting": "[1]; plasma, IV, DT 5 mg/kg", "value": "4190 ± 264", "unit": "ng·h/mL"}, {"measurement": "AUC(0-t)", "setting": "[1]; plasma, IV, DT 5 mg/kg", "value": "1450 ± 109", "unit": "ng·h/mL"}, {"measurement": "half-life", "setting": "[1]; plasma, IV, DT 5 mg/kg", "value": "8.33 ± 7.84", "unit": "h"}, {"measurement": "Tmax", "setting": "[1]; plasma, oral, DT 10 mg/kg", "value": 8, "unit": "h"}, {"measurement": "bioavailability", "setting": "[1]; plasma, oral, DT 10 mg/kg", "value": "7.22 ± 0.924", "unit": "%"}, {"measurement": "AUC(0-inf)", "setting": "[1]; plasma, oral, DT 10 mg/kg", "value": "264 ± 38.3", "unit": "ng·h/mL"}, {"measurement": "AUC(0-t)", "setting": "[1]; plasma, oral, DT 10 mg/kg", "value": "210 ± 26.8", "unit": "ng·h/mL"}, {"measurement": "half-life", "setting": "[1]; plasma, oral, DT 10 mg/kg", "value": "8.67 ± 0.881", "unit": "h"}, {"measurement": "Cmax of DT", "setting": "[1]; oral, DT 10 mg/kg", "value": "21.0 ± 5.17", "unit": "ng/mL"}]}, {"smiles": "O=C1OC2(c3ccc(O)cc3Oc3cc(O)ccc32)c2ccccc21", "note": "[fluorescein]", "values": [{"measurement": "Peff", "setting": "rat intestinal segments", "value": "0.001 ± 0.002 ×10^−4 cm/s"}]}]}
